Laboratory results published in patent US20170190671A1, “BIS(ARYL)CATECHOL DERIVATIVES AS HERBICIDES” (E I DU PONT DE NEMOURS AND COMPANY, priority 2014, published 2017).

How the values were obtained:
Assay in all cases: Test E preemergence
Format in all cases: in vivo
Details in all cases: scale 0 to 100
[1] = system: palmer pigweed (Amaranthus palmeri)
Description: (§1) Seeds of plant species selected from corn (Zea mays), soybean (Glycine max), velvetleaf (Abutilon theophrasti), cocklebur (common cocklebur, Xanthium strumarium), lambsquarters (Chenopodium album), wild poinsettia (Euphorbia heterophylla), palmer pigweed (Amaranthus palmeri), waterhemp (common waterhemp, Amaranthus rudis), surinam grass (Brachiaria decumbens), large (Lg) crabgrass (Digitaria sanguinalis), Brazilian crabgrass (Digitaria horizontalis), fall panicum (Panicum dichotomiflorum), giant foxtail (Setaria faberii), green foxtail (Setaria viridis), goosegrass (Eleusine indica), johnsongrass (Sorghum halepense), ragweed (common ragweed, Ambrosia elatior), barnyardgrass (Echinochloa crus-galli), sandbur (southern sandbur, Cenchrus echinatus), arrowleaf sida (Sida rhombifolia), Italian ryegrass (Lolium multiflorum), dayflower (Virginia (VA) dayflower, Commelina virginica), field bindweed (Convolvulus arvensis), morningglory (Ipomoea coccinea), nightshade (eastern black nightshade, Solanum ptycanthum), kochia (Kochia scoparia), yellow nutsedge (Cyperus esculentus), horseweed (Conyza canadensis), and hairy beggarticks (Bidens pilosa), were planted into a silt loam soil and treated preemergence with test chemicals formulated in a non-phytotoxic solvent mixture which included a surfactant.
(§2) At the same time, plants from these crop and weed species and also waterhemp_RES1, (ALS & Triazine resistant common waterhemp, Amaranthus rudis), and waterhemp_RES2, (ALS & HPPD resistant common waterhemp, Amaranthus rudis) were planted in pots containing Redi-Earth® planting medium (Scotts Company, 14111 Scottslawn Road, Marysville, Ohio 43041) comprising spaghnum peat moss, vermiculite, wetting agent and starter nutrients were treated with postemergence applications of test chemicals formulated in the same manner. Plants ranged in height from 2 to 18 cm for postemergence treatments (1- to 4-leaf stage). Treated plants and controls were maintained in a greenhouse for 14 to 21 days, after which time all species were compared to controls and visually evaluated. Plant response ratings, summarized in Table E, are based on a scale of 0 to 100 where 0 is no effect and 100 is complete control. A dash (-) response means no test result.

[2] = system: ragweed (common ragweed, Ambrosia elatior)
Description: as §1, §2

[3] = system: Surinam grass (Brachiaria decumbens)
Description: as §1, §2

[4] = system: green foxtail (Setaria viridis)
Description: as §1, §2

[5] = system: morningglory (Ipomoea coccinea)
Description: as §1, §2

[6] = system: dayflower (Virginia (VA) dayflower, Commelina virginica)
Description: as §1, §2

[7] = system: goosegrass (Eleusine indica)
Description: as §1, §2

[8] = system: barnyardgrass (Echinochloa crus-galli)
Description: as §1, §2

[9] = system: large (Lg) crabgrass (Digitaria sanguinalis)
Description: as §1, §2

[10] = system: lambsquarters (Chenopodium album)
Description: as §1, §2

[11] = system: fall panicum (Panicum dichotomiflorum)
Description: as §1, §2

[12] = system: Italian ryegrass (Lolium multiflorum)
Description: as §1, §2

[13] = system: Brazilian crabgrass (Digitaria horizontalis)
Description: as §1, §2

[14] = system: sandbur (southern sandbur, Cenchrus echinatus)
Description: as §1, §2

[15] = system: waterhemp (common waterhemp, Amaranthus rudis)
Description: as §1, §2

[16] = system: hairy beggarticks (Bidens pilosa)
Description: as §1, §2

[17] = system: yellow nutsedge (Cyperus esculentus)
Description: as §1, §2

[18] = system: nightshade (eastern black nightshade, Solanum ptycanthum)
Description: as §1, §2

[19] = system: field bindweed (Convolvulus arvensis)
Description: as §1, §2

[20] = system: arrowleaf sida (Sida rhombifolia)
Description: as §1, §2

kochia (Kochia scoparia) = system: kochia (Kochia scoparia)
Description: as §1, §2

## N#Cc1cccc(Oc2ncc(Cl)cn2)c1Oc1ncc(C(F)(F)F)cn1 [Compound 38, 3-[(5-chloro-2-pyrimidinyl)oxy]-2-[[5-(trifluoromethyl)-2-pyrimidinyl]oxy]-benzonitrile]
[1]; 16 g ai/ha
  Plant response rating, Pigweed, Palmer: 60
[1]; 31 g ai/ha
  Plant response rating, Pigweed, Palmer: 100
[1]; 62 g ai/ha
  Plant response rating, Pigweed, Palmer: 98
[1]; 125 g ai/ha
  Plant response rating, Pigweed, Palmer: 100
[2]; 16 g ai/ha
  Plant response rating, Ragweed: 40
[2]; 31 g ai/ha
  Plant response rating, Ragweed: 40
[2]; 62 g ai/ha
  Plant response rating, Ragweed: 60
[2]; 125 g ai/ha
  Plant response rating, Ragweed: 70
[3]; 16 g ai/ha
  Plant response rating, Surinam Grass: 0
[3]; 31 g ai/ha
  Plant response rating, Surinam Grass: 0
[3]; 62 g ai/ha
  Plant response rating, Surinam Grass: 15
[3]; 125 g ai/ha
  Plant response rating, Surinam Grass: 40
[4]; 16 g ai/ha
  Plant response rating, Foxtail, Green: 5
[4]; 31 g ai/ha
  Plant response rating, Foxtail, Green: 30
[4]; 62 g ai/ha
  Plant response rating, Foxtail, Green: 100
[4]; 125 g ai/ha
  Plant response rating, Foxtail, Green: 100
[5]; 16 g ai/ha
  Plant response rating, Morningglory: 0
[5]; 31 g ai/ha
  Plant response rating, Morningglory: 0
[5]; 62 g ai/ha
  Plant response rating, Morningglory: 50
[5]; 125 g ai/ha
  Plant response rating, Morningglory: 35
[6]; 16 g ai/ha
  Plant response rating, Dayflower, VA: 0
[6]; 31 g ai/ha
  Plant response rating, Dayflower, VA: 0
[6]; 62 g ai/ha
  Plant response rating, Dayflower, VA: 20
[6]; 125 g ai/ha
  Plant response rating, Dayflower, VA: 60
[7]; 16 g ai/ha
  Plant response rating, Goosegrass: 30
[7]; 31 g ai/ha
  Plant response rating, Goosegrass: 50
[7]; 62 g ai/ha
  Plant response rating, Goosegrass: 90
[7]; 125 g ai/ha
  Plant response rating, Goosegrass: 100
[8]; 16 g ai/ha
  Plant response rating, Barnyardgrass: 0
[8]; 31 g ai/ha
  Plant response rating, Barnyardgrass: 10
[8]; 62 g ai/ha
  Plant response rating, Barnyardgrass: 70
[8]; 125 g ai/ha
  Plant response rating, Barnyardgrass: 90
[9]; 16 g ai/ha
  Plant response rating, Crabgrass, Large: 50
[9]; 31 g ai/ha
  Plant response rating, Crabgrass, Large: 75
[9]; 62 g ai/ha
  Plant response rating, Crabgrass, Large: 100
[9]; 125 g ai/ha
  Plant response rating, Crabgrass, Large: 100
[10]; 16 g ai/ha
  Plant response rating, Lambsquarters: 98
[10]; 31 g ai/ha
  Plant response rating, Lambsquarters: 100
[10]; 62 g ai/ha
  Plant response rating, Lambsquarters: 100
[10]; 125 g ai/ha
  Plant response rating, Lambsquarters: 100
[11]; 16 g ai/ha
  Plant response rating, Panicum, Fall: 0
[11]; 31 g ai/ha
  Plant response rating, Panicum, Fall: 98
[11]; 62 g ai/ha
  Plant response rating, Panicum, Fall: 100
[11]; 125 g ai/ha
  Plant response rating, Panicum, Fall: 100
[12]; 16 g ai/ha
  Plant response rating, Ryegrass, Italian: 0
[12]; 31 g ai/ha
  Plant response rating, Ryegrass, Italian: 25
[12]; 62 g ai/ha
  Plant response rating, Ryegrass, Italian: 65
[12]; 125 g ai/ha
  Plant response rating, Ryegrass, Italian: 80
[13]; 16 g ai/ha
  Plant response rating, Crabgrass, Brazil: 80
[13]; 31 g ai/ha
  Plant response rating, Crabgrass, Brazil: 98
[13]; 62 g ai/ha
  Plant response rating, Crabgrass, Brazil: 100
[13]; 125 g ai/ha
  Plant response rating, Crabgrass, Brazil: 100
[14]; 16 g ai/ha
  Plant response rating, Sandbur: 0
[14]; 31 g ai/ha
  Plant response rating, Sandbur: 0
[14]; 62 g ai/ha
  Plant response rating, Sandbur: 35
[14]; 125 g ai/ha
  Plant response rating, Sandbur: 80
[15]; 16 g ai/ha
  Plant response rating, Waterhemp: 50
[15]; 31 g ai/ha
  Plant response rating, Waterhemp: 98
[15]; 62 g ai/ha
  Plant response rating, Waterhemp: 98
[15]; 125 g ai/ha
  Plant response rating, Waterhemp: 100
[16]; 16 g ai/ha
  Plant response rating, Beggarticks: 0
[16]; 31 g ai/ha
  Plant response rating, Beggarticks: 0
[16]; 62 g ai/ha
  Plant response rating, Beggarticks: 0
[16]; 125 g ai/ha
  Plant response rating, Beggarticks: 35
[17]; 16 g ai/ha
  Plant response rating, Nutsedge, Yellow: 0
[17]; 31 g ai/ha
  Plant response rating, Nutsedge, Yellow: 0
[17]; 62 g ai/ha
  Plant response rating, Nutsedge, Yellow: 20
[17]; 125 g ai/ha
  Plant response rating, Nutsedge, Yellow: 65
[18]; 16 g ai/ha
  Plant response rating, Nightshade: 5
[18]; 31 g ai/ha
  Plant response rating, Nightshade: 95
[18]; 62 g ai/ha
  Plant response rating, Nightshade: 98
[18]; 125 g ai/ha
  Plant response rating, Nightshade: 100
[19]; 16 g ai/ha
  Plant response rating, Field Bindweed: 35
[19]; 31 g ai/ha
  Plant response rating, Field Bindweed: 70
[19]; 62 g ai/ha
  Plant response rating, Field Bindweed: 95
[19]; 125 g ai/ha
  Plant response rating, Field Bindweed: 65
[20]; 16 g ai/ha
  Plant response rating, Arrowleaf Sida: 60
[20]; 31 g ai/ha
  Plant response rating, Arrowleaf Sida: 50
[20]; 62 g ai/ha
  Plant response rating, Arrowleaf Sida: 80
[20]; 125 g ai/ha
  Plant response rating, Arrowleaf Sida: 100
Kochia (Kochia scoparia); 16 g ai/ha
  Plant response rating, Kochia: 80
Kochia (Kochia scoparia); 31 g ai/ha
  Plant response rating, Kochia: 98
Kochia (Kochia scoparia); 62 g ai/ha
  Plant response rating, Kochia: 100
Kochia (Kochia scoparia); 125 g ai/ha
  Plant response rating, Kochia: 100
